Consider one substance from US9821026B2, “Use of RET agonist molecules for haematopoietic stem cell expansion protocols and transplantation therapy and a RET agonist kit” (Instituto de Medicina Molecular, priority 2012, dated 2017).

Data set [1] relates to HSCs. The experiment in a line: HSC expansion in culture with RET ligands (recovered LSKs and HSCs treated with GFLs for 4 days). To be noted: for HSC expansion in culture (true HSCs recovered): versus conventional medium only, FIG. 3d. It is filed as cell-based, mouse.
In data set [2] the test system is RET. The experiment in a line: Flow cytometry of kinase/CREB phosphorylation in LSK cells upon GFL stimulation. To be noted: GFLs for 1 h, FIG. 3g. It is filed as cell-based, mouse. The method, then:
Intracellular stainings were done using BrdU Flow Kit and anti-BrdU (3D4), 7AAD, anti-Ki-67 (B56), anti-S6 (pS235/pS236) (N7-548) and anti-Akt (pT308) (JI-223.371) from BD Pharmingen, anti-human RET (132507) from R&D Systems, anti-PIP3 (Z-P345) from Echelon Biosciences, anti-CREB (pS133) (87G3), anti-p38 (pT180/Y182) (28B10), anti-Akt (pS473) (D9E) and anti-ERK1/2 (pT202/pY204) (D13.14.4E) from Cell Signaling Technology.
10^6 E14.5 WT Lin^negcKit^pos cells were cultured in DMEM and starved for 2 hours. To test CREB phosphorilation upon GFL stimulation Lin^negcKit^poscells were stimulated 1 hour with 500 ng/ml of each GFL and co-receptor. LSK cells were purified by flow cytometry and stimulated overnight with GFL/GFRα combinations in order to determine Bcl2 and Bcl2l1 expression levels. […] Lin^negcKit^pos cells were stimulated with GFL/GFRα for 120 hours and 2.5×10^5 CD45.2^posLin^negcKit^pos cells were sequentially analysed by flow cytometry and transplanted into lethally irradiated hosts with a radio-protective dose 2.5×10^5 CD45.1 BM cells. […] When analysed by flow cytometry haematopoietic progenitors were further stained with an LSK antibody cocktail.
(In general: Flow cytometry measures light scatter and fluorescence of single cells or particles in a stream.)

The test system of data set [3] is RET. The experiment in a line: Bcl2 and Bcl2l1 expression (RT-PCR) in LSK cells upon GFL treatment. Type of data set: cell-based, mouse. To be noted: overnight GFL/GFRα stimulation; FIG. 3h. The procedure: 10^6 E14.5 WT Lin^negcKit^pos cells were cultured in DMEM and starved for 2 hours. To test CREB phosphorilation upon GFL stimulation Lin^negcKit^poscells were stimulated 1 hour with 500 ng/ml of each GFL and co-receptor. LSK cells were purified by flow cytometry and stimulated overnight with GFL/GFRα combinations in order to determine Bcl2 and Bcl2l1 expression levels. For inhibition experiments cells were incubated 2 hours prior GFLs stimulation, to test CREB phosphorilation, or during overnight stimulation with GFLs, to determine Bcl2 and Bcl2l1 expression levels, with SB 202190 and PD98,059 from Sigma-Aldrich or Akt1/2, Akt Inhibitor VIII and CBP-CREB Interaction Inhibitor from Calbiochem. Lin^negcKit^pos cells were stimulated with GFL/GFRα for 120 hours and 2.5×10^5 CD45.2^posLin^negcKit^pos cells were sequentially analysed by flow cytometry and transplanted into lethally irradiated hosts with a radio-protective dose 2.5×10^5 CD45.1 BM cells. […] When analysed by flow cytometry haematopoietic progenitors were further stained with an LSK antibody cocktail.
Real-time PCR analysis: RNA was extracted from cell suspension using RNeasy Mini Kit or RNeasy Micro Kit (Qiagen). […] Variance was analyzed using F-test. […] Kaplan-Meier survival curves were analyzed using a log rank test. […]

In data set [4] the test system is E14.5 LSK cells. Put plainly: Survival (AnnexinV) of LSK/HSC cells cultured with GFL/GFRα. Type of data set: cell-based, mouse. Conditions: versus conventional medium / medium alone, FIG. 3d-e, FIG. 10c. The procedure:
10^6 E14.5 WT Lin^negcKit^pos cells were cultured in DMEM and starved for 2 hours. To test CREB phosphorilation upon GFL stimulation Lin^negcKit^poscells were stimulated 1 hour with 500 ng/ml of each GFL and co-receptor. LSK cells were purified by flow cytometry and stimulated overnight with GFL/GFRα combinations in order to determine Bcl2 and Bcl2l1 expression levels. For inhibition experiments cells were incubated 2 hours prior GFLs stimulation, to test CREB phosphorilation, or during overnight stimulation with GFLs, to determine Bcl2 and Bcl2l1 expression levels, with SB 202190 and PD98,059 from Sigma-Aldrich or Akt1/2, Akt Inhibitor VIII and CBP-CREB Interaction Inhibitor from Calbiochem. Lin^negcKit^pos cells were stimulated with GFL/GFRα for 120 hours and 2.5×10^5 CD45.2^posLin^negcKit^pos cells were sequentially analysed by flow cytometry and transplanted into lethally irradiated hosts with a radio-protective dose 2.5×10^5 CD45.1 BM cells. To detect Annexin V, 4×10^4 E14.5 WT or Ret^−/−Lin^negckit^pos cells per well were cultured overnight in DMEM alone or with GFL/GFRα. When analysed by flow cytometry haematopoietic progenitors were further stained with an LSK antibody cocktail.

In data set [5] the test system is lethally irradiated mice. The experiment in a line: Competitive transplantation of GFL pre-treated progenitors into lethally irradiated hosts. Type of data set: in vivo, mouse. Conditions: FIG. 4e-g. The method, then: Mice: C57BL/6J (CD45.2 and CD45.1), Rag1^−/− (CD45.2 and CD45.1)^29, Vav1-iCre^11, Gfra1^−/−22, Gfra2^−/−24, Gfra3^−/−23, Ret^MEN2B20 and Ret^−/−9 were on a C57BL/6J genetic background. All mice strains were bred and maintained at IMM animal facility. Animal procedures were performed in accordance to national and institutional guidelines. Generation of Ret Conditional Knockout Mice: To generate mice harbouring a conditional Ret knock-out allele we engineered a targeting construct that firstly, included the introduction of a floxed 2.1 kb, Neomycin resistance (Neo^r) cassette under the control of the phosphoglycerate kinase-1 (PGK) promoter and a polyA tail (pA). This cassette (PGK-NEO^r-pA) was inserted approximately 4.5 kb upstream at the Xho I site of the pBluescript KS (pBS KS) vector that carried approximately 13 kb of the 5′ end of mouse Ret genomic locus flanking exon 1. […] Colony-Forming Units Assays: 5×10^3 E14.5 Lin^negcKit^pos cells MACS purified (MiltenyiBiotec) from WT, Ret^−/− or Ret^MEN2B were cultured in M3434 (Stem Cell Technologies) and scored at day 8 to 10 by flow cytometry and microscope analysis. 3×10^4 E14.5 Lin^negcKit^pos cells were MACS (MiltenyiBiotec) purified from WT, Ret^−/− or Ret^MEN2B and were injected into lethally irradiated mice (9Gy) and CFUs scored after 8 to 10 days by flow cytometry and microscope analysis. […]

On to “glial cell-line derived neurotrophic factor (GDNF) ligands [GFLs]”, for which, in data set [1] (RET agonist treatment), the “differentiation of cells in expansion culture” value is given as “do not alter the differentiation of cells”. Moreover, the “HSC expansion in culture (true HSCs recovered)” value is listed as “three times more true HSCs” in data set [1] (listed as RET agonist) and “three times higher” in data set [1] (listed as RET ligands). For the same substance, the “number of cells recovered in expansion culture” value in data set [1] (versus current conventional medium) was “duplicate the number or cells recovered”. The “increase of bona fide HSCs that maintain their stemness” value in data set [1] (versus current state-of-the-art expansion methods) turned out to be 20 fold. In addition, the “ERK1/2, PI3K/Akt phosphorylation in LSKs” value in data set [2] is reported as “stable”. The “p38/MAP kinase and CREB phosphorylation in LSKs” value in data set [2] (FIG. 10e) was “rapid p38/MAP kinase and CREB phosphorylation”. Further, the “Bcl2/Bcl2l1 expression by LSKs” value in data set [3] was “increased Bcl2/Bcl2l1 expression”. In addition, the “LSK and HSC survival in culture” value is “efficiently increased LSK and HSC survival” in data set [4]; “survive almost three times better” in data set [4] (listed as RET ligands). Besides, the “transplantation fitness and HSC engraftment” value in data set [5] (E14.5 LSKs treated with GFLs, transplanted with competitor CD45.1 BM, versus untreated) is “strikingly increased transplantation fitness and HSC engraftment”. Further, the “increase in transplantation efficiency of expanded HSCs” value in data set [5] (versus HSCs expanded in conventional medium) was “circa 300 fold”.
